Legend:
Type in all cases: cell-based
[1] = biological target: T1, CDK2 (Homo sapiens, UniProt P24941); assay: CDK2 HIBIT PQ (protein quantification), degradation; conditions: for CDK2 HIBIT PQ Max (%): Max = Maximum; for DC50: PQ = Protein Quantification
T1 construct: host or cells: HEK293
How it was run: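 After overnight incubation at 37° C and 5% CO2 in 384-well plates (1.6×10^5 cells/well, 50 uL, DMEM with 10% FBS), HEK293 cells with HiBiT-tagged CDK2 were treated with compound for 6 hours. Detection used 20 μL of Nano-Glo HiBiT lytic reagent with LgBiT protein, 20 minutes of shaking at room temperature and an EnVision reading, with 0.1% DMSO as high control and medium alone as low control. These readings were the basis for DC50 and maximal degradation.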

[2] = biological target: T2, CCNE1 (Homo sapiens, UniProt P24864+P24941); assay: CCNE1 HIBIT PQ (protein quantification), degradation; conditions: for CCNE1 HIBIT PQ Max (%): Max = Maximum; for DC50: PQ = Protein Quantification
T2 construct: host or cells: HEK293
How it was run: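 HEK293 cells carrying HiBiT-tagged CCNE1 were grown in EMEM with 10% FBS and seeded in 384-well plates at 1.6×10⁵ cells/well in 50 uL, then incubated overnight at 37° C and 5% CO₂. Compound treatment lasted 6 hours, and CCNE1 protein was then measured with a HiBiT assay. High control was 0.1% DMSO-treated cells and low control was culture medium only. Maximal degradation and DC50 were derived from these readings.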

[3] = biological target: T3, CDK9 (Homo sapiens, UniProt P50750); assay: CDK9 HIBIT PQ (protein quantification), degradation; conditions: for DC50: PQ = Protein Quantification
T3 construct: host or cells: HEK293
How it was run: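 CDK9 protein was read by HiBiT assay in treated HEK293 cells carrying HiBiT-tagged CDK9, seeded at 1.6×10^5 cells/well in 50 uL in 384-well plates and incubated overnight at 37° C and 5% CO2. Controls were 0.1% DMSO-treated cells (high) and culture medium only (low). Maximal degradation, Dmax and DC50 were calculated from these readings.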

T3 sequence (P50750 whole entry): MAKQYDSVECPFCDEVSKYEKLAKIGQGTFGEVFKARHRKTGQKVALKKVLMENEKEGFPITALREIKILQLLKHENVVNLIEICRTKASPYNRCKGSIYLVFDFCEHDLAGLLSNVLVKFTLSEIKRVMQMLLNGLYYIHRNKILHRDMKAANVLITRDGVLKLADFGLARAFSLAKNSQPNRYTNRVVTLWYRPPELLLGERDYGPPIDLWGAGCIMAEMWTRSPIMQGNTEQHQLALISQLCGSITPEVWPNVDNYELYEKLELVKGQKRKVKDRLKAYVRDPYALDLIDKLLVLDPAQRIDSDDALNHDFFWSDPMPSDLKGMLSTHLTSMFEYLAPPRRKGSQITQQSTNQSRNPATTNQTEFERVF

SMILES	CDK2 HIBIT PQ Max (%) [1] [%]	DC50 [1] [nM]	CCNE1 HIBIT PQ Max (%) [2] [%]	DC50 [2] [nM]	Dmax ([3]; Max = Maximum) [%]	DC50 [3] [nM]	CDK9 HIBIT PQ Max (%) ([3]; Max = Maximum)
CC(C)Oc1c(-c2cn[nH]c2)ncn2nc(Nc3ccc(S(=O)(=O)N(C)CCCN4C5CCC4CN(c4ccc6c(c4)n(C)c(=O)n6C4CCC(=O)NC4=O)C5)cc3F)nc12 (stereo not drawn) [Compound 68]	90	0.1	67	1.05	73	2.76	
CC(C)Oc1c(-c2cn[nH]c2)ncn2nc(Nc3ccc(S(=O)(=O)c4cccc(C[C@H]5C[C@H](c6ccc7c(N8CCC(=O)NC8=O)nn(C)c7c6)C5)c4)cc3F)nc12 [Compound 89, rel-1-(6-((1s,3r)-3-(3-((3-fluoro-4-((8-isopropoxy-7-(1H-pyrazol-4-yl)-[1,2,4]triazolo[1,5-c]pyrimidin-2-yl)amino)phenyl)sulfonyl)benzyl)cyclobutyl)-1-methyl-1H-indazol-3-yl)dihydropyrimidine-2,4(1H,3H)-dione]	70	43.4	38		17		
Cc1cc(Nc2nc3c(OC(C)C)c(-c4cn[nH]c4)ncn3n2)c(F)cc1S(=O)(=O)N(C)CCCN1CCC(c2ccc3c(c2)n(C)c(=O)n3C2CCC(=O)NC2=O)CC1 (racemic) [Compound 59]	86	0.1	66	0.4	68	1.34	
CC(C)Oc1c(-c2cn[nH]c2)ncn2nc(Nc3ccc(S(=O)(=O)N(C)CCCN4CCN(c5ccc6c(c5)n(C)c(=O)n6C5CCC(=O)NC5=O)C[C@H]4C)cc3F)nc12 (stereo partly drawn) [Compound 63]	92	< 0.152	66	1.24	85	2.07	
CC(C)Oc1c(-c2cn[nH]c2)ncn2nc(Nc3ccc(S(=O)(=O)N(C)CCCN4CCN(c5ccc6c(c5)n(C)c(=O)n6C5CCC(=O)NC5=O)CC4(C)C)cc3F)nc12 (racemic) [Compound 67]	92	< 0.152	73	1.08	91	1.52	
CC(C)Oc1c(-c2cn[nH]c2)ncn2nc(Nc3ccc(S(=O)(=O)c4cccc(C(C)N5CCC(c6ccc7c(N8CCC(=O)NC8=O)nn(C)c7c6)CC5)c4)cc3F)nc12 (single isomer, unassigned) [Compound 101]	90	2.6	77	13.9		10.6	82
CC(C)Oc1c(-c2cn[nH]c2)ncn2nc(Nc3ccc(S(=O)(=O)N4CCCC(CN5CCC(c6ccc7c(N8CCC(=O)NC8=O)nn(C)c7c6)C(C)C5)C4)cc3F)nc12 (stereo not drawn) [Compound 92]	88	1.7	82	4.11	77	21.7	
CC(C)Oc1c(-c2cn[nH]c2)ncn2nc(N[C@H]3CCN(S(=O)(=O)N(C)CCCN4CCC(c5cccc6c5n(C)c(=O)n6C5CCC(=O)NC5=O)CC4)C[C@H]3C)nc12 (stereo partly drawn) [Compound 7]	92	1.07	96	0.76	91	2.13	
CC(C)Oc1c(-c2cn[nH]c2)ncn2nc(Nc3ccc(S(=O)(=O)c4cccc(CN5CCN(c6ccc7c(N8CCC(=O)NC8=O)nn(C)c7c6)C(C(C)C)C5)c4)cc3F)nc12 (racemic) [Compound 43, rac-1-{6-[(2R)-4-{[3-(3-fluoro-4-{[8-isopropoxy-7-(1H-pyrazol-4-yl)-[1,2, 4]triazolo[1,5-c]pyrimidin-2-yl]amino}benzenesulfonyl)phenyl]methyl}-2-isopropylpiperazin-1-yl]-1-methylindazol-3-yl}-1,3-diazinane-2,4-dione]	94	14.5	76	96.5	75	307	
CC(C)Oc1c(-c2cn[nH]c2)ncn2nc(Nc3ccc(S(=O)(=O)c4cccc(N5CCN(CC6CCN(c7ccc8c(c7)CN(C7CCC(=O)NC7=O)C8=O)CC6)CC5)c4)cc3F)nc12 (racemic) [Compound 9]	89	1.44	72	6.38	97	11.7	
CC(C)Oc1c(-c2cn[nH]c2)ncn2nc(Nc3ccc(S(=O)(=O)N(C)CCCN4CCC(c5ccc6c(c5)n(C)c(=O)n6C5CCC(=O)NC5=O)CC4)c(F)c3F)nc12 (racemic) [Compound 56]	93		82	0.23	90	0.48	
